Values of other authors, collected in patent US20090311317A1, “MODIFIED RELEASE TOLTERODINE FORMULATIONS” (Capricorn Pharma Inc., priority 2008, published 2009).
Structures can show the parent of a compound that is named as a salt.

How the values were obtained:
bladder = settings: versus oxybutynin
[1] = tested on: muscarinic receptors of the salivary gland; settings: versus oxybutynin

Cc1ccc(O)c([C@@H](CCN(C(C)C)C(C)C)c2ccccc2)c1 [tolterodine, (+)-N,N-diisopropyl-3-(2-hydroxy-5-methylphenyl)-3-phenylpropylamine L-hydrogen tartrate]
potency in the bladder relative to oxybutynin (bladder): equipotent with oxybutynin
affinity for muscarinic receptors of the salivary gland relative to oxybutynin [1]: eight times lower
